Our source for the IC50 values is patent US20260184707A1, “PHARMACEUTICAL COMPOUNDS FOR THE TREATMENT OF COMPLEMENT MEDIATED DISORDERS” (ALEXION PHARMACEUTICALS, INC., priority 2022, published 2026).

This test has as its target T1, Human complement C1s enzyme (Homo sapiens, UniProt P09871).
T1 construct: purified from human serum, Complement Technology, Inc; purchased Complement Technology, Inc; host or cells: human serum (plasma-derived native protein)
T1 sequence (P09871 438-688 limits assumed): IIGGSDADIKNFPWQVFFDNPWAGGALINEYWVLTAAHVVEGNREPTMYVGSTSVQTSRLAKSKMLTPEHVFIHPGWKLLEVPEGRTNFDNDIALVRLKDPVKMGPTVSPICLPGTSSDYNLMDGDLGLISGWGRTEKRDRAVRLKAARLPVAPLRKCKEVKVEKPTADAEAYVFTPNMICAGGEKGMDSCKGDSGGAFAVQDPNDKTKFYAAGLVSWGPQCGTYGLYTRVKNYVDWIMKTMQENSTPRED
T1 sequence (P09871 16-437 partner limits assumed): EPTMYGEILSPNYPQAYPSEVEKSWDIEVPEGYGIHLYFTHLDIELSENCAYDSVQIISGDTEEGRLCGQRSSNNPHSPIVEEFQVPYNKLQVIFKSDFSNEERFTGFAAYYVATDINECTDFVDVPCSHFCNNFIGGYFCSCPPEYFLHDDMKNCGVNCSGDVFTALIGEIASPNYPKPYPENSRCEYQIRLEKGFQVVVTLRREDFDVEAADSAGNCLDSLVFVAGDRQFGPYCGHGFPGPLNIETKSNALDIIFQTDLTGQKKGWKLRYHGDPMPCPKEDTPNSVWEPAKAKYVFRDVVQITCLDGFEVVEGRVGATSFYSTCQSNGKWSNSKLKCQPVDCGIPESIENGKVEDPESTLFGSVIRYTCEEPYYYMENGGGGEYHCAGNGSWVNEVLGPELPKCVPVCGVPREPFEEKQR
Briefly: Human C1s enzyme assay. The format is biochemical. As to conditions: human complement C1s enzyme 1.16 nM, substrate Z-L-Lys-SBzl, A405; read-out: IC50 (Stars). An outline of the steps:
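Serum-purified human C1s (1.16 nM final) preincubated 5 min at room temperature with compound in 50 mM Tris, 1 M NaCl, pH 7.5. Z-L-Lys-SBzl and DTNB added at 100 μM each; A405 recorded every 30 s. IC50 from nonlinear regression of reaction rates versus compound concentration.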

Each structure is given as a SMILES string.

On to `C[C@@H](Nc1ncc(-c2ccccn2)n(CC(=O)NCc2cc3cnccc3[nH]2)c1=O)c1ccc2oc3ccccc3c2c1` [Compound 430, (R)-N-((1H-pyrrolo[3,2-c]pyridin-2-yl)methyl)-2-(3-((1-(dibenzo[b,d]furan-2-yl)ethyl)-amino)-2-oxo-6-(pyridin-2-yl)-pyrazin-1(2H)-yl)acetamide], for which the IC50 is below 100 nM.
Under `C[C@@H](Nc1ncc(-c2nccs2)n(CC(=O)NCc2cc3cnccc3[nH]2)c1=O)c1ccc2oc3ccccc3c2c1` [Compound 431, (R)-N-((1H-pyrrolo[3,2-c]pyridin-2-yl)methyl)-2-(3-((1-(dibenzo[b,d]furan-2-yl)ethyl)-amino)-2-oxo-6-(thiazol-2-yl)-pyrazin-1(2H)-yl)acetamide] stands below 100 nM; under `C[C@@H](Nc1ncc(-c2cscn2)n(CC(=O)NCc2cc3cnccc3[nH]2)c1=O)c1ccc(-c2ccccc2F)cc1` [Compound 432, (R)-N-((1H-pyrrolo[3,2-c]pyridin-2-yl)methyl)-2-(3-((1-(2′-fluoro-[1,1′-biphenyl]-4-yl)ethyl)amino)-2-oxo-6-(thiazol-4-yl)pyrazin-1(2H)-yl)acetamide], below 100 nM; under `O=C(Cn1c(-c2ccccc2F)ncc(N[C@H](CO)c2ccc3oc4ccccc4c3c2)c1=O)NCc1cc2cnccc2[nH]1` [Compound 433, (S)—N-((1H-Pyrrolo[3,2-c]pyridine-2-yl)methyl)-2-(5-((1-(dibenzo[b,d]furan-2-yl)-2-hydroxyethyl)amino)-2-(2-fluorophenyl)-6-oxopyrimidin-1(6H)-yl)acetamide], below 100 nM.
Regarding `Cc1cccc(-c2ncc(N[C@H](C)c3ccc4oc5ccccc5c4c3)c(=O)n2CC(=O)NCc2cc3cnccc3[nH]2)c1F` [Compound 434, (R)-N-((1H-pyrrolo[3,2-c]pyridin-2-yl)methyl)-2-(5-((1-(dibenzo[b,d]furan-2-yl)ethyl)amino)-2-(2-fluoro-3-methylphenyl)-6-oxopyr-imidin-1(6H)-yl)acetamide], the IC50 is below 100 nM.
The figure for `Cc1cccc(-c2ncc(NCCCc3ccccc3)c(=O)n2CC(=O)NCc2cc3cnccc3[nH]2)c1F` [Compound 435, N-((1H-pyrrolo[3,2-c]pyridin-2-yl)methyl)-2-(2-(2-fluoro-3-methylphenyl)-6-oxo-5-((3-phenylpropyl)amino)pyrimi-din-1(6H)-yl)acetamide] is below 100 nM; for `Cc1ccc(-c2ncc(N[C@H](C)c3ccc4oc5ccccc5c4c3)c(=O)n2CC(=O)NCc2cc3cnccc3[nH]2)c(F)c1` [Compound 436, (R)-N-((1H-pyrrolo[3,2-c]pyridin-2-yl)methyl)-2-(5-((1-(dibenzo[b,d]furan-2-yl)ethyl)-amino)-2-(2-fluoro-4-methyl-phenyl)-6-oxopyrimidin-1(6H)-yl)acetamide] it is below 100 nM; for `Cc1ccc(-c2ncc(NCCCc3ccccc3)c(=O)n2CC(=O)NCc2cc3cnccc3[nH]2)c(F)c1` [Compound 437, N-((1H-pyrrolo[3,2-c]pyridin-2-yl)methyl)-2-(2-(2-fluoro-4-methylphenyl)-6-oxo-5-((3-phenylpropyl)amino)pyrimi-din-1(6H)-yl)acetamide] it is below 100 nM.
The figure for `Cc1ccc(F)c(-c2ncc(N[C@H](C)c3ccc4oc5ccccc5c4c3)c(=O)n2CC(=O)NCc2cc3cnccc3[nH]2)c1` [Compound 438, (R)-N-((1H-pyrrolo[3,2-c]pyridin-2-yl)methyl)-2-(5-((1-(dibenzo[b,d]furan-2-yl)ethyl)-amino)-2-(2-fluoro-5-methyl-phenyl)-6-oxopyrimidin-1(6H)-yl)acetamide] is below 100 nM; for `Cc1ccc(F)c(-c2ncc(NCCCc3ccccc3)c(=O)n2CC(=O)NCc2cc3cnccc3[nH]2)c1` [Compound 439, N-((1H-pyrrolo[3,2-c]pyridin-2-yl)methyl)-2-(2-(2-fluoro-5-methylphenyl)-6-oxo-5-((3-phenylpropyl)amino)pyrimi-din-1(6H)-yl)acetamide] it is below 100 nM; for `C[C@@H](Nc1ncc(N2CCCC2)n(CC(=O)NCc2cc3cnccc3[nH]2)c1=O)c1ccc2oc3ccccc3c2c1` [Compound 440, (R)-N-((1H-pyrrolo[3,2-c]pyridin-2-yl)methyl)-2-(3-((1-(dibenzo[b,d]furan-2-yl)ethyl)-amino)-2-oxo-6-(pyrrolidin-1-yl)pyrazin-1(2H)-yl)acetamide] it is 100 to 1000 nM.
As for `CC(C)c1cnc(N[C@H](C)c2ccc3oc4ccccc4c3c2)c(=O)n1CC(=O)NCc1cc2cnccc2[nH]1` [Compound 442, (R)-N-((1H-pyrrolo[3,2-c]pyridin-2-yl)methyl)-2-(3-((1-(dibenzo[b,d]furan-2-yl)ethyl)-amino)-6-isopropyl-2-oxopyr-azin-1(2H)-yl)acetamide], the IC50 was below 100 nM.
Under `O=C(Cn1c(-c2ccccc2F)cnc(N[C@H](CF)c2ccc3oc4ccccc4c3c2)c1=O)NCc1cc2cnccc2[nH]1` [Compound 443, (S)-N-((1H-pyrrolo[3,2-c]pyridin-2-yl)methyl)-2-(3-((1-(dibenzo[b,d]furan-2-yl)-2-fluoroethyl)amino)-6-(2-fluorophenyl)-2-oxopyrazin-1(2H)-yl)acetamide] stands below 100 nM; under `C[C@@H](Nc1ncc(N2CCNCC2)n(CC(=O)NCc2cc3cnccc3[nH]2)c1=O)c1ccc2oc3ccccc3c2c1` [Compound 444, (R)-N-((1H-pyrrolo[3,2-c]pyridin-2-yl)methyl)-2-(3-((1-(dibenzo[b,d]furan-2-yl)ethyl)-amino)-2-oxo-6-(piperazin-1-yl)pyrazin-1(2H)-yl)acetamide], below 100 nM.
As for `C[C@@H](Nc1cnc(N2CCCCC2)n(CC(=O)NCc2cc3cnccc3[nH]2)c1=O)c1ccc(-c2ccccc2)s1` [Compound 445, (R)—N-((1H-Pyrrolo[3,2-c]pyridine-2-yl)methyl)-2-(6-oxo-5-((1-(5-phenylthiophen-2-yl)ethyl)amino)-2-(piperidin-1-yl)pyrimidin-1(6H)-yl)acetamide], the IC50 was below 100 nM.
The figure for `C[C@@H](Nc1cnc(-c2cscn2)n(CC(=O)NCc2cc3cnccc3[nH]2)c1=O)c1ccc(-c2ccccc2F)cc1` [Compound 446, (R)-N-((1H-pyrrolo[3,2-c]pyridin-2-yl)methyl)-2-(5-((1-(2′-fluoro-[1,1′-biphenyl]-4-yl)ethyl)amino)-6-oxo-2-(thiazol-4-yl)pyrimidin-1(6H)-yl)acetamide] is below 100 nM; for `C[C@@H](Nc1cnc(-c2ccccn2)n(CC(=O)NCc2cc3cnccc3[nH]2)c1=O)c1ccc(-c2ccccc2F)cc1` [Compound 447, (R)-N-((1H-pyrrolo[3,2-c]pyridin-2-yl)methyl)-2-(5-((1-(2′-fluoro-[1,1′-biphenyl]-4-yl)ethyl)amino)-6-oxo-2-(pyridin-2-yl)pyrimidin-1(6H)-yl)acetamide] it is below 100 nM; for `C[C@@H](Nc1cnc(N2CCCCC2)n(CC(=O)NCc2cc3cnccc3[nH]2)c1=O)c1ccc(Oc2ccccc2)cc1` [Compound 448, (R)-N-((1H-pyrrolo[3,2-c]pyridin-2-yl)methyl)-2-(6-oxo-5-((1-(4-phenoxyphenyl)-ethyl)amino)-2-(piperidin-1-yl)pyrimidin-1(6H)-yl)acet-amide] it is 100 to 1000 nM.
Under `C[C@@H](Nc1ncc(-c2ccccn2)n(CC(=O)NCc2cc3cnccc3[nH]2)c1=O)c1ccc(-c2ccccc2F)cc1` [Compound 449, (R)-N-((1H-pyrrolo[3,2-c]pyridin-2-yl)methyl)-2-(3-((1-(2′-fluoro-[1,1′-biphenyl]-4-yl)ethyl)amino)-2-oxo-6-(pyridin-2-yl)pyrazin-1(2H)-yl)acetamide] stands below 100 nM; under `C[C@@H](Nc1cnc(C2=CCCCC2)n(CC(=O)NCc2cc3cnccc3[nH]2)c1=O)c1coc(-c2ccccc2)n1` [Compound 450, (R)-N-((1H-pyrrolo[3,2-c]pyridin-2-yl)methyl)-2-(2-(cyclohex-1-en-1-yl)-6-oxo-5-((1-(2-phenyloxazol-4-yl)-ethyl)amino)pyrimidin-1(6H)-yl)acetamide], below 100 nM.
Under `C[C@@H](Nc1cnc(-c2ccc(OCCCCCCCN)cc2)n(CC(=O)NCc2cc3cnccc3[nH]2)c1=O)c1ccc2oc3ccccc3c2c1` [Compound 451, (R)—N-((1H-Pyrrolo[3,2-c]pyridine-2-yl)methyl)-2-(2-(4-((7-aminoheptyl)oxy)phenyl)-5-((1-(dibenzo[b,d]furan-2-yl)ethyl)amino)-6-oxopyrimidin-1(6H)-yl)acetamide] stands below 100 nM.
`C[C@@H](Nc1cnc(-c2ccc(OCCOCCOCCN)cc2)n(CC(=O)NCc2cc3cnccc3[nH]2)c1=O)c1ccc2oc3ccccc3c2c1` [Compound 452, (R)-N-((1H-pyrrolo[3,2-c]pyridin-2-yl)methyl)-2-(2-(4-(2-(2-(2-aminoethoxy)ethoxy)-ethoxy)phenyl)-5-((1-(dibenzo [b,d]furan-2-yl)ethyl)amino)-6-oxopyrimidin-1(6H)-yl)-acetamide]: the IC50 was below 100 nM.

A word on the IC50: it is the concentration at which inhibition is half-maximal.
